Measured values taken from US8846947B2, “Benzimidazoles and related analogs as sirtuin modulators” (GlaxoSmithKline LLC, priority 2008, dated 2014).
Like-named read-outs stand apart in the source and are kept apart here. Blank lines part the entries; values can stand above or below the molecule they belong to.

Molecular target: T1, SIRT1 (Homo sapiens, UniProt Q96EB6)
T1 sequence (Q96EB6 1-747): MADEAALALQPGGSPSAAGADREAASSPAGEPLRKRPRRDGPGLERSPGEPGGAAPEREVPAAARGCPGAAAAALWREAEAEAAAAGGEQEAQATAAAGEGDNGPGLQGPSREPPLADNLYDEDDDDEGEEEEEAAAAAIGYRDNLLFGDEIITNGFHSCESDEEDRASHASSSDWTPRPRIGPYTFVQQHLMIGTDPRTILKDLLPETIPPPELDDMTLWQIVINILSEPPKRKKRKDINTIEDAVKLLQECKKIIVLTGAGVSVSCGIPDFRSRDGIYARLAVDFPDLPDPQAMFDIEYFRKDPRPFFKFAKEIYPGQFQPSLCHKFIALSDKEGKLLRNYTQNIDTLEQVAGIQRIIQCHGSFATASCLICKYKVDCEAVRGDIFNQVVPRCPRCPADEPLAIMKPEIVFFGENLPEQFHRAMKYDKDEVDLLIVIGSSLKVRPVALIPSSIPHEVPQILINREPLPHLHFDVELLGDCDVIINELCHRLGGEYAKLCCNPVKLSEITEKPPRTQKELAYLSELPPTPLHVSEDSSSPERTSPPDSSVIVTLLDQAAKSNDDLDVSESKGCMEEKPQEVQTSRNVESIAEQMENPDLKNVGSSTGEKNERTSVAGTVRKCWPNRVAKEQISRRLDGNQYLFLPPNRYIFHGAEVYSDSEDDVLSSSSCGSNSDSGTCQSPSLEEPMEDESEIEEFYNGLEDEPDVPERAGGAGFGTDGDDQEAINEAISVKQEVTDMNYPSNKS
Assay: Mass spectrometry based SIRT1 deacetylase activation assay (acetylated p53-derived peptide substrate)
Assay type: biochemical

[1] = 0.5 μM peptide substrate, 120 μM βNAD+, 10 nM SIRT1, 25 minutes at 25° C.
[2] = 0.5 μM peptide substrate, 120 μM βNAD+, 10 nM SIRT1, 25 min at 25° C.
[3] = 0.5 μM peptide substrate, 120 μM βNAD+, 10 nM SIRT1, 25 min at 25° C., read-out: EC1.5

EC1.5: A (EC1.5<1.0 uM)
Fold Act. (percent maximum fold activation): A (Fold activation >200%)
SMILES: O=C(Nc1nccs1)c1cccc2[nH]c(-c3ccc(N4CCOCC4)nc3)nc12 [Compound 247, 2-(6-morpholinopyridin-3-yl)-N-(thiazol-2-yl)-1H-benzo[d]imidazole-4-carboxamide]

EC1.5: B (EC1.5 1-25 uM)
Fold Act. (percent maximum fold activation): A (Fold activation >200%)
SMILES: O=C(Nc1ccncn1)c1cccc2[nH]c(-c3cccc(C(F)(F)F)c3)nc12 [Compound 277]

EC1.5 [1]: A (EC1.5<1.0 uM)
Fold Act. (percent maximum fold activation) [1]: A (Fold activation >200%)
SMILES: O=C(Nc1cccnn1)c1cc(N2CCOCC2)cc2[nH]c(-c3ccc(Cl)cc3C(F)(F)F)nc12 [Compound 643]

Fold Act. (percent maximum fold activation) [2]: A (Fold activation >200%)
EC1.5 [3]: < 1000 nM
SMILES: Cc1nc(N2CCOCC2)sc1-c1nc2c(C(=O)Nc3ccccn3)cccc2[nH]1 [Compound 412]

EC1.5: A (EC1.5<1.0 uM)
Fold Act. (percent maximum fold activation): A (Fold activation >200%)
SMILES: O=C(Nc1cccnc1)c1cccc2[nH]c(-c3cc(F)ccc3C(F)(F)F)nc12 [Compound 317]

EC1.5 [1]: A (EC1.5<1.0 uM)
Fold Act. (percent maximum fold activation) [1]: A (Fold activation >200%)
SMILES: Cc1cnc(NC(=O)c2cncc3[nH]c(-c4ccc(OC[C@H](O)CO)cc4C(F)(F)F)nc23)s1 [Compound 762]

EC1.5: C (EC1.5 >25 uM)
Fold Act. (percent maximum fold activation): B (Fold Activation <200%)
SMILES: O=C(NCc1ccncc1)c1cccc2[nH]c(-c3cccc(C(F)(F)F)c3)nc12 [Compound 271]

EC1.5 [1]: A (EC1.5<1.0 uM)
Fold Act. (percent maximum fold activation) [1]: A (Fold activation >200%)
SMILES: O=C(Nc1nccs1)c1cncc2[nH]c(-c3ccc(OC[C@H](O)CO)cc3C(F)(F)F)nc12 [Compound 761]

EC1.5 [1]: A (EC1.5<1.0 uM)
Fold Act. (percent maximum fold activation) [1]: A (Fold activation >200%)
SMILES: O=C(Nc1ccc(CN2CCNCC2)nc1)c1cccc2[nH]c(-c3ccccc3C(F)(F)F)nc12 [Compound 728]

EC1.5: C (EC1.5 >25 uM)
Fold Act. (percent maximum fold activation): B (Fold Activation <200%)
SMILES: O=C(Nc1nccs1)c1cccc2[nH]c(-c3ccc(C(F)(F)F)cc3)nc12 [Compound 209]

EC1.5: B (EC1.5 1-25 uM)
Fold Act. (percent maximum fold activation): B (Fold Activation <200%)
SMILES: O=C(Nc1nccs1)c1cccc2[nH]c(-c3ccc(Cl)nc3)nc12 [Compound 246]

Fold Act. (percent maximum fold activation) [2]: B (Fold Activation <200%)
EC1.5 [3]: 1000 to 25000 nM
SMILES: O=C(Nc1cccc2[nH]c(-c3ccc(Cl)cc3C(F)(F)F)nc12)c1cscn1 [Compound 416]

Fold Act. (percent maximum fold activation) [2]: A (Fold activation >200%)
EC1.5 [3]: < 1000 nM
SMILES: Cc1cnc(NC(=O)c2cccc3[nH]c(-c4c(C(F)(F)F)nn(C)c4Cl)nc23)s1 [Compound 495]

Fold Act. (percent maximum fold activation) [2]: A (Fold activation >200%)
EC1.5 [3]: < 1000 nM
SMILES: O=C(Nc1cccnc1)c1cccc2[nH]c(-c3ccc(N4CCCC4)cc3C(F)(F)F)nc12 [Compound 573]

EC1.5: B (EC1.5 1-25 uM)
Fold Act. (percent maximum fold activation): A (Fold activation >200%)
SMILES: Cc1ncsc1-c1nc2c(C(=O)Nc3nccs3)cccc2[nH]1 [Compound 293]

EC1.5 [1]: A (EC1.5<1.0 uM)
Fold Act. (percent maximum fold activation) [1]: A (Fold activation >200%)
SMILES: O=C(Nc1cccnc1)c1cncc2[nH]c(-c3ccc(F)cc3C(F)(F)F)nc12 [Compound 695]

Fold Act. (percent maximum fold activation) [2]: A (Fold activation >200%)
EC1.5 [3]: < 1000 nM
SMILES: O=C(Nc1cccc(CN2CCCC2)c1)c1cccc2[nH]c(-c3ccc(Cl)cc3C(F)(F)F)nc12 [Compound 490, 2-(4-chloro-2-(trifluoromethyl)phenyl)-N-(3-(pyrrolidin-1-ylmethyl)phenyl)-1H-benzo[d]imidazole-4-carboxamide]

EC1.5 [1]: A (EC1.5<1.0 uM)
Fold Act. (percent maximum fold activation) [1]: A (Fold activation >200%)
SMILES: O=C(Nc1nccs1)c1cccc2[nH]c(-c3cnccc3C(F)(F)F)nc12 [Compound 702]

EC1.5 [1]: A (EC1.5<1.0 uM)
Fold Act. (percent maximum fold activation) [1]: A (Fold activation >200%)
SMILES: O=C(Nc1ccc(CN2CCOCC2)nc1)c1cccc2[nH]c(-c3ccc(Cl)cc3C(F)(F)F)nc12 [Compound 684]

EC1.5: B (EC1.5 1-25 uM)
Fold Act. (percent maximum fold activation): A (Fold activation >200%)
SMILES: O=C(Nc1nccs1)c1cccc2[nH]c(-c3cccnc3Cl)nc12 [Compound 245]

EC1.5: B (EC1.5 1-25 uM)
Fold Act. (percent maximum fold activation): A (Fold activation >200%)
SMILES: Cc1nnc(NC(=O)c2cccc3[nH]c(-c4cccc(C(F)(F)F)c4)nc23)s1 [Compound 232]

EC1.5: A (EC1.5<1.0 uM)
Fold Act. (percent maximum fold activation): A (Fold activation >200%)
SMILES: Cc1cc(NC(=O)c2cccc3[nH]c(-c4cc(F)ccc4C(F)(F)F)nc23)n(C)n1 [Compound 380]

EC1.5: A (EC1.5<1.0 uM)
Fold Act. (percent maximum fold activation): A (Fold activation >200%)
SMILES: CN1CCOc2cc(-c3nc4c(C(=O)Nc5cccnc5)cccc4[nH]3)cnc21 [Compound 372]

EC1.5: A (EC1.5<1.0 uM)
Fold Act. (percent maximum fold activation): A (Fold activation >200%)
SMILES: Cn1nc(C(F)(F)F)c(-c2nc3c(C(=O)Nc4ccccn4)cccc3[nH]2)c1Cl [Compound 327]

The remaining lines, values behind:

SMILES: O=C(Nc1cccnn1)c1cc(N2CCOCC2)cc2[nH]c(-c3ccccc3C(F)(F)F)nc12 [Compound 631]
EC1.5 [1]: A (EC1.5<1.0 uM)
Fold Act. (percent maximum fold activation) [1]: A (Fold activation >200%)

SMILES: O=C(Nc1nc(CN2CCOCC2)cs1)c1cccc2[nH]c(-c3ccccc3C(F)F)nc12 [Compound 845]
EC1.5 [1]: A (EC1.5<1.0 uM)
Fold Act. (percent maximum fold activation) [1]: A (Fold activation >200%)

SMILES: O=C(Nc1ccccn1)c1cccc2[nH]c(-c3ccccc3OCCN3CCNCC3)nc12 [Compound 484]
Fold Act. (percent maximum fold activation) [2]: A (Fold activation >200%)
EC1.5 [3]: 1000 to 25000 nM

SMILES: O=C(Nc1ccccn1)c1cccc2[nH]c(-c3ccccc3OCCN3CCOCC3)nc12 [Compound 474]
Fold Act. (percent maximum fold activation) [2]: A (Fold activation >200%)
EC1.5 [3]: 1000 to 25000 nM

SMILES: O=C(Nc1ccc(OC[C@H](O)CO)cc1)c1cccc2[nH]c(-c3cccc(N4CCOCC4)c3)nc12 [Compound 777]
EC1.5 [1]: A (EC1.5<1.0 uM)
Fold Act. (percent maximum fold activation) [1]: A (Fold activation >200%)

SMILES: O=C(Nc1ccncn1)c1cccc2[nH]c(-c3ccc(N4CCOCC4)cc3C(F)F)nc12 [Compound 593]
Fold Act. (percent maximum fold activation) [2]: A (Fold activation >200%)
EC1.5 [3]: < 1000 nM

SMILES: FC(F)(F)c1ccccc1-c1nc2c(NCc3cccnc3)cccc2[nH]1 [Compound 618]
EC1.5 [1]: C (EC1.5 >25 uM)
Fold Act. (percent maximum fold activation) [1]: B (Fold Activation <200%)

SMILES: O=C(Nc1ccccn1)c1cccc2[nH]c(-c3ccc(OC4CCNC4)cc3)nc12 (centres unmarked) [Compound 442]
Fold Act. (percent maximum fold activation) [2]: A (Fold activation >200%)
EC1.5 [3]: < 1000 nM

SMILES: CCCN1CCCc2ccc(-c3nc4c(C(=O)Nc5cccnc5)cccc4[nH]3)cc21 [Compound 497]
Fold Act. (percent maximum fold activation) [2]: A (Fold activation >200%)
EC1.5 [3]: 1000 to 25000 nM

SMILES: c1ccc(-n2nccc2-c2nc3c(NCc4cccnc4)cccc3[nH]2)cc1 [Compound 671]
EC1.5 [1]: C (EC1.5 >25 uM)
Fold Act. (percent maximum fold activation) [1]: B (Fold Activation <200%)

SMILES: Cc1cccc(-c2nc3c(C(=O)Nc4nccs4)cccc3[nH]2)c1OCCN1CCOCC1 [Compound 626]
EC1.5 [1]: B (EC1.5 1-25 uM)
Fold Act. (percent maximum fold activation) [1]: A (Fold activation >200%)

SMILES: CC(C)(C)NCCOc1ccccc1-c1nc2c(C(=O)Nc3ccccn3)cccc2[nH]1 [Compound 616]
EC1.5 [1]: B (EC1.5 1-25 uM)
Fold Act. (percent maximum fold activation) [1]: A (Fold activation >200%)

SMILES: O=C(Nc1cccnn1)c1cccc2[nH]c(-c3ccc(N4CCCC4)cc3C(F)F)nc12 [Compound 775]
EC1.5 [1]: A (EC1.5<1.0 uM)
Fold Act. (percent maximum fold activation) [1]: A (Fold activation >200%)

SMILES: O=C(Nc1ccc(OC[C@@H](O)CO)cc1)c1cccc2[nH]c(-c3cccnc3)nc12 [Compound 753]
EC1.5 [1]: A (EC1.5<1.0 uM)
Fold Act. (percent maximum fold activation) [1]: A (Fold activation >200%)

SMILES: O=C(Nc1ccccn1)c1cccc2[nH]c(-c3cc(F)cc(F)c3OCCN3CCOCC3)nc12 [Compound 586]
Fold Act. (percent maximum fold activation) [2]: B (Fold Activation <200%)
EC1.5 [3]: 1000 to 25000 nM

SMILES: FC(F)(F)c1ccccc1-c1nc2c(Nc3ccccn3)cccc2[nH]1 [Compound 582]
Fold Act. (percent maximum fold activation) [2]: B (Fold Activation <200%)
EC1.5 [3]: > 25000 nM

SMILES: CC1(C)CN(CCOc2ccccc2-c2nc3c(C(=O)Nc4nccs4)cccc3[nH]2)CCO1 [Compound 711]
EC1.5 [1]: A (EC1.5<1.0 uM)
Fold Act. (percent maximum fold activation) [1]: A (Fold activation >200%)

SMILES: O=C(Nc1nccs1)c1cccc2[nH]c(-c3ccccc3OCCN3CCC(F)(F)C3)nc12 [Compound 614]
EC1.5 [1]: C (EC1.5 >25 uM)
Fold Act. (percent maximum fold activation) [1]: B (Fold Activation <200%)

SMILES: O=C(Nc1cccnc1)c1cc(N2CCCC2)cc2[nH]c(-c3ccccc3C(F)F)nc12 [Compound 792]
EC1.5 [1]: A (EC1.5<1.0 uM)
Fold Act. (percent maximum fold activation) [1]: A (Fold activation >200%)
